Legend:
Test in all cases: Field trial Europe (Experiment A1), pre-emergence weed control in maize
Type in all cases: in vivo
Polygonum lapathifolium = settings: CHAZAY, 64DAT
Method: (§1) The following experiments were conducted on Compound A and Compound B in various field research stations in Europe during May. Compound A (as a 750 g/kg water dispersible granule formulation) and Compound B (as a 600 g/kg water dispersible granule formulation) were tested at the following dose rates (note that hereafter ai means active ingredient): Compound A : 50, 75, 100, 125 g ai/ha Compound B : 240, 360, 480, 600 g ai/ha Compound A + Compound B : 50 + 240/360/480 g ai/ha 75 + 240/360/480 g ai/ha 100 + 240/360/480 g ai/ha Trial and application conditions are given below in Table 1 (in the Tables that follow DAT means days after treatment): Table 1 [table] Weeds were drilled on the same day as maize. All trials were sprayed pre-emergence of the maize on the same day as drilling or within 2 days afterwards. Soil conditions were warm and wet, so that the crop and weeds emerged and grew quickly. Rainfall or irrigation occurred within 15 days of application. In this Table "Obs" is the observed value the value in brackets (Exp) is the expected value calculated using the Colby formula.

Amaranthus retroflexus = settings: ALZONNE, 46DAT
Method: as §1

Setaria viridis = settings: BOLOGNA, 54DAT
Method: as §1

Echinochloa crus-galli = tested on: Echinochloa crus-galli
Method: as §1

In the case of `CS(=O)(=O)c1cc(C(F)(F)F)ccc1C(=O)c1cnoc1C1CC1` [Cpd A, 5-cyclopropyl-4-(2-methylsulphonyl-4-trifluoromethyl)benzoylisozaxole], the “percentage phytotoxicity Obs” value (Polygonum lapathifolium; Cpd A 50 g a.i./ha) is reported as 50%, the “percentage phytotoxicity Obs” value (Polygonum lapathifolium; Cpd A 75 g a.i./ha) is reported as 90% and the “percentage phytotoxicity Obs” value (Polygonum lapathifolium; Cpd A 100 g a.i./ha) is reported as 70%. The “percentage phytotoxicity Obs” value (Polygonum lapathifolium; Cpd A 125 g a.i./ha) was 95%, the “percentage phytotoxicity Obs” value (Amaranthus retroflexus; Cpd A 50 g a.i./ha) was 72% and the “percentage phytotoxicity Obs” value (Amaranthus retroflexus; Cpd A 75 g a.i./ha) was 70%. The “percentage phytotoxicity Obs” value (Amaranthus retroflexus; Cpd A 100 g a.i./ha) was 80%, the “percentage phytotoxicity Obs” value (Amaranthus retroflexus; Cpd A 125 g a.i./ha) was 95% and the “percentage phytotoxicity Obs” value (Setaria viridis; Cpd A 50 g a.i./ha) was 62%. For the same compound, the “percentage phytotoxicity Obs” value (Setaria viridis; Cpd A 75 g a.i./ha) was 82%, the “percentage phytotoxicity Obs” value (Setaria viridis; Cpd A 100 g a.i./ha) was 82% and the “percentage phytotoxicity Obs” value (Setaria viridis; Cpd A 125 g a.i./ha) was 97%. The “percentage phytotoxicity Obs” value (Echinochloa crus-galli; ALZONNE, 46DAT, Cpd A 50 g a.i./ha) was 45%, the “percentage phytotoxicity Obs” value (Echinochloa crus-galli; ALZONNE, 46DAT, Cpd A 75 g a.i./ha) was 35% and the “percentage phytotoxicity Obs” value (Echinochloa crus-galli; ALZONNE, 46DAT, Cpd A 100 g a.i./ha) was 82%. For the same compound, the “percentage phytotoxicity Obs” value (Echinochloa crus-galli; ALZONNE, 46DAT, Cpd A 125 g a.i./ha) was 85%, the “percentage phytotoxicity Obs” value (Echinochloa crus-galli; BOLOGNA, 54DAT, Cpd A 50 g a.i./ha) was 77% and the “percentage phytotoxicity Obs” value (Echinochloa crus-galli; BOLOGNA, 54DAT, Cpd A 75 g a.i./ha) was 91%. For the same compound, the “percentage phytotoxicity Obs” value (Echinochloa crus-galli; BOLOGNA, 54DAT, Cpd A 100 g a.i./ha) was 75% and the “percentage phytotoxicity Obs” value (Echinochloa crus-galli; BOLOGNA, 54DAT, Cpd A 125 g a.i./ha) was 100%.
`CC(C)N(C(=O)COc1nnc(C(F)(F)F)s1)c1ccc(F)cc1` [Cpd B, N-isopropyl-(5-trifluoromethyl-1,3,4-thiadiazol-2-yl)-4-(4'-fluoro-oxyacetanilide)] was tested, and the “percentage phytotoxicity Obs” value (Polygonum lapathifolium; Cpd B 240 g a.i./ha) was 25%, the “percentage phytotoxicity Obs” value (Polygonum lapathifolium; Cpd B 360 g a.i./ha) was 0% and the “percentage phytotoxicity Obs” value (Polygonum lapathifolium; Cpd B 480 g a.i./ha) was 25%. The “percentage phytotoxicity Obs” value (Polygonum lapathifolium; Cpd B 600 g a.i./ha) was 40%, the “percentage phytotoxicity Obs” value (Amaranthus retroflexus; Cpd B 240 g a.i./ha) was 30% and the “percentage phytotoxicity Obs” value (Amaranthus retroflexus; Cpd B 360 g a.i./ha) was 10%. For the same compound, the “percentage phytotoxicity Obs” value (Amaranthus retroflexus; Cpd B 480 g a.i./ha) was 67%, the “percentage phytotoxicity Obs” value (Amaranthus retroflexus; Cpd B 600 g a.i./ha) was 45% and the “percentage phytotoxicity Obs” value (Setaria viridis; Cpd B 240 g a.i./ha) was 85%. The “percentage phytotoxicity Obs” value (Setaria viridis; Cpd B 360 g a.i./ha) was 82%, the “percentage phytotoxicity Obs” value (Setaria viridis; Cpd B 480 g a.i./ha) was 86% and the “percentage phytotoxicity Obs” value (Setaria viridis; Cpd B 600 g a.i./ha) was 82%. The “percentage phytotoxicity Obs” value (Echinochloa crus-galli; ALZONNE, 46DAT, Cpd B 240 g a.i./ha) was 45%, the “percentage phytotoxicity Obs” value (Echinochloa crus-galli; ALZONNE, 46DAT, Cpd B 360 g a.i./ha) was 65% and the “percentage phytotoxicity Obs” value (Echinochloa crus-galli; ALZONNE, 46DAT, Cpd B 480 g a.i./ha) was 77%. For the same compound, the “percentage phytotoxicity Obs” value (Echinochloa crus-galli; ALZONNE, 46DAT, Cpd B 600 g a.i./ha) was 90%, the “percentage phytotoxicity Obs” value (Echinochloa crus-galli; BOLOGNA, 54DAT, Cpd B 240 g a.i./ha) was 35% and the “percentage phytotoxicity Obs” value (Echinochloa crus-galli; BOLOGNA, 54DAT, Cpd B 360 g a.i./ha) was 52%. The “percentage phytotoxicity Obs” value (Echinochloa crus-galli; BOLOGNA, 54DAT, Cpd B 480 g a.i./ha) was 65% and the “percentage phytotoxicity Obs” value (Echinochloa crus-galli; BOLOGNA, 54DAT, Cpd B 600 g a.i./ha) was 75%.

From patent publication EP0796041B1, “NEW HERBICIDAL COMPOSITIONS” (RHONE-POULENC AGRO, priority 1994, dated 1996)
